This note sets out measurements from US20220333077A1, “Product for Therapy and Methods” (The University of Bristol, priority 2019, published 2022).

Entries after “also recorded” stand apart in the source; their conditions may differ. Residues, ends and D or L forms follow the SMILES beside them. *: point of attachment. Cbz = O=C(OCc1ccccc1)*

Data set [1] concerns thymidine phosphorylase (TP). Briefly: Effect of degradation inhibitors on TP expression in differentiating cTP cells. Type of data set: cell-based, human. Particulars: day 14 cTP cells, 24 hours incubation; 10 μM leupeptin or 5 μM MG132. The source says: The substantial loss of TP enzyme expression during differentiation could mean that TP is being actively degraded during terminal differentiation. To test whether exogenous TP degradation during differentiation is due to ubiquitination or lysosomal degradation, we subjected the day 14 (orthochromatic erythrocytes) cTP cells to an ubiquitination inhibitor MG132, or a lysosomal degradation inhibitor, leupeptin (Tsubuki, S., et al., J Biochem, 1996, 119(3), p. 572-6; Hershko, A. and A. Ciechanover, Annu Rev Biochem, 1982, 51, p. 335-64). TP expression was first measured on day 14 and then 24 hours after incubation with inhibitors or the vehicle control.
As previously described (Griffiths, R. E., et al., Blood, 2012. 119(26), p. 6296-306), CD34+ haemopoietic stem cells (HSC) here isolated from human blood donor mononuclear cells or from thawed cryopreserved cord blood units by magnetic bead separation according to manufacturer's instructions (Miltenyi Biotech Ltd, Bisley UK). CD34+ cells were grown at a density of 2×10^5 cells/ml using a base medium consisting of IMDM (Source BioScience) containing 3% (v/v) AB Serum, 2 mg/ml HSA, 10 μg/ml Insulin, 3U/ml heparin, 500 μg/ml transferrin and 3U/ml Epo. […] Cells where fixed with paraformaldehyde and analysed by flow cytometry.

A further data set has as its system glutamine synthase. The data set is described as follows: MG132 effect on glutamine synthase levels in GS (over)expressing erythroblasts, flow cytometry. In kind it is cell-based, human. To be noted: MG132 added at day 15, expression measured at day 19. The source says: To investigate the degree to which exogenous enzyme expression is retained during erythropoiesis, four different enzymes were expressed in CD34+ haematopoietic stem cells (using lentivirus) and subsequently differentiated to reticulocytes: glutamine synthase (FIG. 8), adenosine deaminase (FIG. 9), L-asparaginase (FIG. 10), and uricase (FIG. 11). The exogenous proteins Uricase (a bacterial enzyme), human L-asparaginase (ASP) and human […] (ADA) were tagged with c-Myc to facilitate measurement of expression during differentiation by flow cytometry and western blot. GAPDH is an endogenous enzyme which was also blotted for in some cases. For human glutamine synthetase (GS) an antibody specific for this protein was used to detect expression by flow cytometry. The bar graphs in FIGS. 8-11 show expression of indicated enzymes during differentiation as assessed by flow cytometry across two different cultures. Western blots illustrate expression of the enzymes in in vitro derived reticulocytes. To explore whether ubiquitination enhances GS enzyme retention at the end of the culture, MG132 (a ubiquitin inhibitor) was added at day 15 to the GS (over)expressing erythroblasts. Expression was measured at day 19 by flow cytometry.

Data set [2] relates to in vitro cultured erythroid cells. Type of data set: cell-based. To be noted: 0.5 mM thymidine added early, e.g. Day 0 of differentiation; data not shown.
The target of data set [3] is T1, thymidine phosphorylase (TP) (Homo sapiens, UniProt P19971).
T1 construct: expressed in transfected cells; host or cells: CD34+-derived cultured human erythroid progenitors (cTP) and BEL-A erythroid cells (bTP), lentiviral XLG3 vector
T1 sequence (P19971 11-482): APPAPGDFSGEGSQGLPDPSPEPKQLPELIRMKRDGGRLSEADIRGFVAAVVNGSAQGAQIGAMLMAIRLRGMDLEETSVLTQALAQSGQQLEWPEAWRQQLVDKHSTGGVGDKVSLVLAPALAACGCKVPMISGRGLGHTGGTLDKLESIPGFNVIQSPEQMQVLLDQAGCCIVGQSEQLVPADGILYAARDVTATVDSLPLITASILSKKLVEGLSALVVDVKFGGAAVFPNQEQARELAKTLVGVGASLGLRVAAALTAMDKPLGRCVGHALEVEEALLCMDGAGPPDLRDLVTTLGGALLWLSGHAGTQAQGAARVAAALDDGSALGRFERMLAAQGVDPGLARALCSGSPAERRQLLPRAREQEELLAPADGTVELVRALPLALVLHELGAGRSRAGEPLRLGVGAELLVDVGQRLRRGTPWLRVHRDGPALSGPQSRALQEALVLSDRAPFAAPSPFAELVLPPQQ
The data set is described as follows: Thymidine supplementation of differentiation media, TP enzyme abundance in reticulocytes. Type of data set: cell-based. The source says: After further examination of the molecular human TP structure we observed that the 2 ubiquitination sites that correspond with murine TP, would only be available for ubiquitination in the absence of substrate.
Reticulocytes were identified by gating upon Hoechst-negative population.

Turning to `CC(C)C[C@@H](C=O)NC(=O)[C@H](CC(C)C)NC(=O)[C@H](CC(C)C)NC(=O)OCc1ccccc1` [MG132] (Cbz-Leu-Leu-Leu-aldehyde), the “effect on TP degradation during differentiation” value in data set [1] is “protected TP from degradation during differentiation; also recorded: inhibition of degradation was observed”. The “glutamine synthase levels in reticulocytes” value in the data set with glutamine synthase is “increases glutamine synthase levels in reticulocytes”.

For the compound `CC(=O)N[C@@H](CC(C)C)C(=O)N[C@@H](CC(C)C)C(=O)N[C@H](C=O)CCCNC(=N)N` [leupeptin], the “effect on TP degradation during differentiation” value in data set [1] is reported as “did not impair degradation”.

As to `Cc1cn([C@H]2C[C@H](O)[C@@H](CO)O2)c(=O)[nH]c1=O` [thymidine], the “cell death and differentiation” value in data set [2] is “increase in cell death and inhibition of differentiation”. The “TP enzyme abundance compared to standard differentiation media” value in data set [3] (bTP reticulocytes, 0.5 mM thymidine daily from day 6 (polychromatic erythroblast stage)) was “doubled”; in data set [3] (cTP reticulocytes, 0.5 mM thymidine daily from day 14 (polychromatic erythroblast stage)), “doubled”. Besides, in data set [3] (thymidine added to the media, un-mutated ubiquitination site), the “concentration of active TP in the reticulocyte” value is “roughly double”.
